Consider one molecule from ChEMBL document CHEMBL4024779, “Novel Terminal Bipheny-Based Diapophytoene Desaturases (CrtN) Inhibitors as Anti-MRSA/VISR/LRSA Agents with Reduced hERG Activity” (J Med Chem, 2018).

The test has as its target 4,4'-diapophytoene synthase (Staphylococcus aureus, UniProt A9JQL9). As to the kind of experiment: Inhibition of CrtM in Staphylococcus aureus assessed as reduction in staphyloxanthin levels after 72 hrs by spectrophotometric method.

The term IC50 denotes the concentration that gives 50% inhibition.

Sequence of 4,4'-diapophytoene synthase (A9JQL9 whole entry): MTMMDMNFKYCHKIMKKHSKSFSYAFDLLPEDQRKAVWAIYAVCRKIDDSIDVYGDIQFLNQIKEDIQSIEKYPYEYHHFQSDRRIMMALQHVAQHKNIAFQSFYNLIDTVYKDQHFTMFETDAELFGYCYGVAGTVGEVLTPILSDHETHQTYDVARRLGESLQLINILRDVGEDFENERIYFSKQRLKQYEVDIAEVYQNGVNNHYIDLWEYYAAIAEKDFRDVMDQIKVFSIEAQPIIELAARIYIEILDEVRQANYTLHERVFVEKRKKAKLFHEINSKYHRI

Regarding `O=P(O)(O)C(CCCc1cccc(Oc2ccccc2)c1)S(=O)(=O)O` (stereo unspecified), the IC50 amounted to 110 nM.
